{"source": "paper PMC6001238", "about": "“Iterative Chemical Engineering of Vancomycin Leads to Novel Vancomycin Analogs With a High in Vitro Therapeutic Index” (Frontiers in Microbiology, 2018)", "key": {"[1]": {"tested_on": "MRSA KS89", "assay": "MIC, broth microdilution, MRSA KS89", "type": "cell-based, Staphylococcus aureus", "procedure,_shortened": "(§1)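 Susceptibility was scored by broth microdilution (CLSI). In one instance each vancomycin analog or control antibiotic was tested in the presence of vancomycin, 10 μM final, and ultrapure water plus non-inoculated broth were included as controls.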"}, "[2]": {"tested_on": "E. faecalis VRE 37", "assay": "MIC, broth microdilution, vancomycin-resistant E. faecalis VRE 37 (VanA)", "type": "cell-based, Enterococcus faecalis", "procedure,_shortened": "as §1"}, "[3]": {"tested_on": "S. aureus VISA/HIP5827", "assay": "MIC, broth microdilution, vancomycin-intermediate S. aureus VISA HIP5827", "type": "cell-based, Staphylococcus aureus", "procedure,_shortened": "as §1"}, "[4]": {"tested_on": "33 clinical VRE isolates", "assay": "MIC against a set of 33 clinical VRE isolates (range, MIC50, TI)", "type": "cell-based, Enterococcus faecalis", "experimental": "(§2) The minimum inhibitory concentration (MIC) was determined using the broth microdilution method according to the antimicrobial susceptibility testing standards of the clinical and laboratory standards institute ([Clinical and Laboratory Standards Institute [CLSI], 2012]). Ultrapure water and non-inoculated broth were used as controls. In one case, a final concentration of 10 μM vancomycin was included with the vancomycin analog or control antibiotic."}, "[5]": {"tested_on": "VE 82 (VanC1)", "assay": "MIC, VanC1-type VRE strain VE 82", "type": "cell-based, Enterococcus gallinarum", "details": "VE 82, VanC1; read-out: MIC", "experimental": "as §2"}, "[6]": {"tested_on": "VE 157 (VanB)", "assay": "MIC, VanB-type VRE strain VE 157", "type": "cell-based, Enterococcus", "details": "VE 157, VanB; read-out: MIC", "experimental": "as §2"}, "[7]": {"tested_on": "VE 152 (VanB)", "assay": "MIC, VanB-type VRE strain VE 152", "type": "cell-based, Enterococcus", "details": "VE 152, VanB; read-out: MIC", "experimental": "as §2"}, "[8]": {"tested_on": "MRSA", "assay": "Minimum bactericidal concentration against MRSA", "type": "cell-based, Staphylococcus aureus", "experimental": "Plates were incubated overnight at 37°C and colony growth was inspected."}, "[9]": {"tested_on": "E. faecalis VSE 1", "assay": "MIC, broth microdilution, vancomycin-sensitive E. faecalis (VSE 1)", "type": "cell-based, Enterococcus faecalis", "procedure,_shortened": "as §1"}, "[10]": {"tested_on": "human T-lymphocyte (CEM) cells", "assay": "Cytostatic activity, CEM cell proliferation", "type": "cell-based", "details": "mean ± SD of three experiments; highest concentration tested 250 µM; 3 days; read-out: Toxicity (IC50) CEM", "procedure,_shortened": "(§3)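 Suspensions (300,000–500,000 cells/mL) combined with equal volumes of diluted compound; 37°C; L1210 2 d / CEM 3 d / HeLa 4 d; counted by Coulter counter; IC50 vs untreated wells.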"}, "[11]": {"tested_on": "E. faecalis VRE 53", "assay": "MIC, broth microdilution, vancomycin-resistant E. faecalis VRE 53 (VanA)", "type": "cell-based, Enterococcus faecalis", "procedure,_shortened": "as §1"}, "[12]": {"tested_on": "E. faecalis VRE 29", "assay": "MIC, broth microdilution, vancomycin-resistant E. faecalis VRE 29 (VanA)", "type": "cell-based, Enterococcus faecalis", "procedure,_shortened": "as §1"}, "[13]": {"tested_on": "24 clinical MRSA isolates", "assay": "MIC against a set of 24 clinical MRSA isolates (range, MIC50, TI)", "type": "cell-based, Staphylococcus aureus", "experimental": "as §2"}, "[14]": {"tested_on": "S. aureus VSSA (ATCC 6538)", "assay": "MIC, broth microdilution, vancomycin-sensitive S. aureus (VSSA/MSSA, ATCC 6538)", "type": "cell-based, Staphylococcus aureus", "procedure,_shortened": "as §1"}, "[15]": {"tested_on": "VRE39", "assay": "MIC in the absence and presence of 10 µM vancomycin (vanA induction)", "type": "cell-based, Enterococcus faecalis", "experimental": "as §2"}, "[16]": {"tested_on": "Murine leukemia (L1210) cells", "assay": "Cytostatic activity, L1210 cell proliferation", "type": "cell-based", "details": "mean ± SD of three experiments; highest concentration tested 250 µM; 2 days; read-out: Toxicity (IC50) L1210", "procedure,_shortened": "as §3"}, "[17]": {"tested_on": "human cervix carcinoma (HeLa) cells", "assay": "Cytostatic activity, HeLa cell proliferation", "type": "cell-based", "details": "mean ± SD of three experiments; highest concentration tested 250 µM; 4 days; read-out: Toxicity (IC50) HeLa", "procedure,_shortened": "as §3"}, "[18]": {"tested_on": "E. faecalis VRE 6", "assay": "MIC, broth microdilution, vancomycin-resistant E. faecalis VRE 6 (VanA)", "type": "cell-based, Enterococcus faecalis", "procedure,_shortened": "as §1"}, "[19]": {"tested_on": "VE 149 (VanB)", "assay": "MIC, VanB-type VRE strain VE 149", "type": "cell-based, Enterococcus", "details": "VE 149, VanB; read-out: MIC", "experimental": "as §2"}, "[20]": {"tested_on": "L1210, CEM and HeLa cell lines", "assay": "Cytostatic activity, average or summary over L1210, CEM and HeLa", "type": "cell-based", "procedure,_shortened": "as §3"}, "[21]": {"tested_on": "VE 150 (VanB)", "assay": "MIC, VanB-type VRE strain VE 150", "type": "cell-based, Enterococcus", "details": "VE 150, VanB; read-out: MIC", "experimental": "as §2"}, "[22]": {"tested_on": "S. aureus VRSA", "assay": "MIC, broth microdilution, vancomycin-resistant S. aureus (VRSA)", "type": "cell-based, Staphylococcus aureus", "procedure,_shortened": "as §1"}, "[23]": {"tested_on": "VE 148 (VanB)", "assay": "MIC, VanB-type VRE strain VE 148", "type": "cell-based, Enterococcus", "details": "VE 148, VanB; read-out: MIC", "experimental": "as §2"}}, "note": "Like-named read-outs stand apart in the source and are kept apart here."}
{"compound": "CNC(CC(C)C)C(=O)NC1C(=O)NC(CC(N)=O)C(=O)NC2C(=O)NC3C(=O)NC(C(=O)NC(C(=O)NCC(=O)Nc4ccc(-c5ccccc5)cc4)c4cc(O)cc(O)c4-c4cc3ccc4O)C(O)c3ccc(c(Cl)c3)Oc3cc2cc(c3OC2OC(CO)C(O)C(O)C2OC2CC(C)(N)C(O)C(C)O2)Oc2ccc(cc2Cl)C1O", "note": "(stereo not shown) [Vanc-83]", "values": [{"measurement": "MIC-fold improvement vs. vancomycin", "setting": "[1]; MRSA KS8, ratio of MIC of vancomycin and MIC of analogue", "value": 4}, {"measurement": "MIC", "setting": "[1]; Staphylococcus aureus MRSA KS8, read-out: MIC", "value": 0.20, "unit": "µM"}, {"measurement": "MIC", "setting": "[2]; Enterococcus faecalis VRE 37 (vancomycin-resistant), read-out: MIC", "value": 1.56, "unit": "µM"}, {"measurement": "MIC-fold improvement vs. vancomycin", "setting": "[2]; VRE 37, ratio of MIC of vancomycin and MIC of analogue", "value": 256}, {"measurement": "MIC", "setting": "[3]; Staphylococcus aureus VISA/HIP5827, read-out: MIC", "value": 1.56, "unit": "µM"}, {"measurement": "MIC-fold improvement vs. vancomycin", "setting": "[3]; VISA/HIP5827, ratio of MIC of vancomycin and MIC of analogue", "value": 4}, {"measurement": "MIC Range", "setting": "[4]; 33 clinical VRE isolates", "value": "0.78 to 3.13", "unit": "µM"}, {"measurement": "TI (IC50/MIC50)", "setting": "[4]; in vitro therapeutic index, VRE", "value": 69}, {"measurement": "MIC", "setting": "[5]", "value": 0.78, "unit": "µM"}, {"measurement": "MIC", "setting": "[6]", "value": 1.56, "unit": "µM"}, {"measurement": "MIC", "setting": "[7]", "value": 1.56, "unit": "µM"}, {"measurement": "MBC relative to MIC", "setting": "[8]", "value": "MBC equaling their MIC values"}, {"measurement": "MIC", "setting": "[9]; Enterococcus faecalis VSE 1 (vancomycin-sensitive), read-out: MIC", "value": 0.39, "unit": "µM"}, {"measurement": "MIC-fold improvement vs. vancomycin", "setting": "[9]; VSE 1, ratio of MIC of vancomycin and MIC of analogue", "value": 4}, {"measurement": "IC50", "setting": "[10]", "value": "37 ± 6", "unit": "µM"}, {"measurement": "MIC", "setting": "[11]; Enterococcus faecalis VRE 53 (vancomycin-resistant), read-out: MIC", "value": 1.56, "unit": "µM"}, {"measurement": "MIC-fold improvement vs. vancomycin", "setting": "[11]; VRE 53, ratio of MIC of vancomycin and MIC of analogue", "value": 256}, {"measurement": "MIC", "setting": "[12]; Enterococcus faecalis VRE 29 (vancomycin-resistant), read-out: MIC", "value": 1.56, "unit": "µM"}, {"measurement": "MIC-fold improvement vs. vancomycin", "setting": "[12]; VRE 29, ratio of MIC of vancomycin and MIC of analogue", "value": 256}, {"measurement": "MIC Range", "setting": "[13]; 24 clinical MRSA isolates", "value": "0.10 to 0.78", "unit": "µM"}, {"measurement": "TI (IC50/MIC50)", "setting": "[13]; in vitro therapeutic index, MRSA", "value": 535}, {"measurement": "MIC50", "setting": "[13]; median MIC, 24 clinical MRSA isolates, read-out: MIC50", "value": 0.20, "unit": "µM"}, {"measurement": "MIC", "setting": "[14]; Staphylococcus aureus VSSA, read-out: MIC", "value": 0.20, "unit": "µM"}, {"measurement": "MIC-fold improvement vs. vancomycin", "setting": "[14]; VSSA, ratio of MIC of vancomycin and MIC of analogue", "value": 4}, {"measurement": "MIC", "setting": "[15]; VRE39, 0 µM vancomycin", "value": 1.56, "unit": "µM"}, {"measurement": "MIC", "setting": "[15]; VRE39, 10 μM vancomycin added", "value": 3.13, "unit": "µM"}, {"measurement": "IC50", "setting": "[16]", "value": "179 ± 41", "unit": "µM"}, {"measurement": "IC50", "setting": "[17]", "value": "105 ± 27", "unit": "µM"}, {"measurement": "MIC", "setting": "[18]; Enterococcus faecalis VRE 6 (vancomycin-resistant), read-out: MIC", "value": 0.78, "unit": "µM"}, {"measurement": "MIC-fold improvement vs. vancomycin", "setting": "[18]; VRE 6, ratio of MIC of vancomycin and MIC of analogue", "value": 256}, {"measurement": "MIC", "setting": "[19]", "value": 1.56, "unit": "µM"}, {"measurement": "IC50", "setting": "[20]; average IC50 used for TI in Table S5, >250 entered as 250, read-out: IC50", "value": 107, "unit": "µM"}, {"measurement": "IC50", "setting": "[20]; average of L1210, CEM and HeLa, read-out: Toxicity (IC50) Average", "value": 107, "unit": "µM"}, {"measurement": "MIC", "setting": "[21]", "value": 1.56, "unit": "µM"}, {"measurement": "MIC", "setting": "[22]; Staphylococcus aureus VRSA, read-out: MIC", "value": 0.39, "unit": "µM"}, {"measurement": "MIC-fold improvement vs. vancomycin", "setting": "[22]; VRSA, ratio of MIC of vancomycin and MIC of analogue", "value": 256}, {"measurement": "MIC", "setting": "[23]", "value": 1.56, "unit": "µM"}]}
